According to ChEMBL document CHEMBL1932950, “Inhibitory constituents of Nardostachys chinensis on nitric oxide production in RAW 264.7 macrophages” (Bioorg Med Chem Lett, 2012):
pIC50: −log10 of the molar value.

Tests used:
RAW264.7 [1] = assay: Cytotoxicity against mouse RAW264.7 cells by CCK assay; assay type: cell-based
RAW264.7 [2] = assay: Antiinflammatory activity in mouse RAW264.7 cells assessed as inhibition of LPS-induced NO production after 24 hrs by Griess method; assay type: functional, cell-based; details: for pIC50: RAW264.7, 24 h

| pIC50 (RAW264.7 [2]) | Compound | Activity (RAW264.7 [1]) | inhibition (RAW264.7 [2]) |
| --- | --- | --- | --- |
| < 4.30 | COc1cc(C2OC2CO)ccc1O (centres undefined) [EPOXYCONIFERYL ALCOHOL] | Non-toxic |  |
| < 4.30 | COc1ccc(/C=C/C(=O)O)cc1O [ISOFERULIC ACID] | Non-toxic |  |
| 5.34 | C[C@@H]1C[C@H](O)C=C2C(=O)C=C[C@@H](O)[C@]21C [NARCHINOL B] | Non-toxic | Dose-dependent effect |
| 4.67 | C[C@@H]1C[C@@H](O)C=C2C(=O)C=C[C@@H](O)[C@]21C [NARCHINOL C] | Non-toxic | Dose-dependent effect |
| < 4.30 | C[C@H]1[C@H](C)CC[C@]2(C(=O)O)CC[C@]3(C)C(=CC[C@@H]4[C@@]5(C)CC[C@H](O)C(C)(C)[C@@H]5CC[C@]43C)[C@H]12 [URSOLIC ACID] | Non-toxic |  |

The next lines start with the compound.

| Compound | pIC50 (RAW264.7 [2]) | Activity (RAW264.7 [1]) | inhibition (RAW264.7 [2]) |
| --- | --- | --- | --- |
| C[C@@H]1CCC=C2C(=O)C=C[C@@H](O)[C@]21C | 5.08 | Non-toxic | Dose-dependent effect |
| C[C@@H]1CCC=C2C(=O)CC(=O)C[C@]21C | < 4.30 | Non-toxic |  |
| COc1cc([C@H]2OC[C@H]3[C@@H]2CO[C@@H]3c2ccc(O)c(OC)c2)ccc1O [(+)-PINORESINOL] |  | Non-toxic |  |
| COc1cc([C@@H]2OC[C@@H]3[C@H]2CO[C@H]3c2ccc(O)c(OC)c2)ccc1O [(+)-PINORESINOL] | 4.47 |  |  |
| O=C(O)/C=C/c1ccc(O)cc1 [COUMARIC ACID] | < 4.30 | Non-toxic |  |
| C[C@@H]1CC(=O)C=C2[C@H](O)C[C@@H]3[C@@H](C3(C)C)[C@]21C [DEBILON] | < 4.30 | Non-toxic |  |
| C[C@@H]1C[C@@H](O)C=C2C(=O)C[C@H]3OOC(C)(C)[C@H]3[C@]21C [KANSHONE B] | 4.94 | Non-toxic | Dose-dependent effect |
| C[C@@H]1CCC=C2C(=O)C[C@H]3OOC(C)(C)[C@H]3[C@]21C [NARDOSINONE] | 4.95 | Non-toxic | Dose-dependent effect |
